The target in the test is Vascular endothelial growth factor receptor 2 (Homo sapiens, UniProt P35968). Nature of the test: Inhibition of human cytoplasmic VEGFR2 expressed in baculovirus after 15 mins by time resolved fluorescence assay.
Vascular endothelial growth factor receptor 2, sequence (P35968 whole entry): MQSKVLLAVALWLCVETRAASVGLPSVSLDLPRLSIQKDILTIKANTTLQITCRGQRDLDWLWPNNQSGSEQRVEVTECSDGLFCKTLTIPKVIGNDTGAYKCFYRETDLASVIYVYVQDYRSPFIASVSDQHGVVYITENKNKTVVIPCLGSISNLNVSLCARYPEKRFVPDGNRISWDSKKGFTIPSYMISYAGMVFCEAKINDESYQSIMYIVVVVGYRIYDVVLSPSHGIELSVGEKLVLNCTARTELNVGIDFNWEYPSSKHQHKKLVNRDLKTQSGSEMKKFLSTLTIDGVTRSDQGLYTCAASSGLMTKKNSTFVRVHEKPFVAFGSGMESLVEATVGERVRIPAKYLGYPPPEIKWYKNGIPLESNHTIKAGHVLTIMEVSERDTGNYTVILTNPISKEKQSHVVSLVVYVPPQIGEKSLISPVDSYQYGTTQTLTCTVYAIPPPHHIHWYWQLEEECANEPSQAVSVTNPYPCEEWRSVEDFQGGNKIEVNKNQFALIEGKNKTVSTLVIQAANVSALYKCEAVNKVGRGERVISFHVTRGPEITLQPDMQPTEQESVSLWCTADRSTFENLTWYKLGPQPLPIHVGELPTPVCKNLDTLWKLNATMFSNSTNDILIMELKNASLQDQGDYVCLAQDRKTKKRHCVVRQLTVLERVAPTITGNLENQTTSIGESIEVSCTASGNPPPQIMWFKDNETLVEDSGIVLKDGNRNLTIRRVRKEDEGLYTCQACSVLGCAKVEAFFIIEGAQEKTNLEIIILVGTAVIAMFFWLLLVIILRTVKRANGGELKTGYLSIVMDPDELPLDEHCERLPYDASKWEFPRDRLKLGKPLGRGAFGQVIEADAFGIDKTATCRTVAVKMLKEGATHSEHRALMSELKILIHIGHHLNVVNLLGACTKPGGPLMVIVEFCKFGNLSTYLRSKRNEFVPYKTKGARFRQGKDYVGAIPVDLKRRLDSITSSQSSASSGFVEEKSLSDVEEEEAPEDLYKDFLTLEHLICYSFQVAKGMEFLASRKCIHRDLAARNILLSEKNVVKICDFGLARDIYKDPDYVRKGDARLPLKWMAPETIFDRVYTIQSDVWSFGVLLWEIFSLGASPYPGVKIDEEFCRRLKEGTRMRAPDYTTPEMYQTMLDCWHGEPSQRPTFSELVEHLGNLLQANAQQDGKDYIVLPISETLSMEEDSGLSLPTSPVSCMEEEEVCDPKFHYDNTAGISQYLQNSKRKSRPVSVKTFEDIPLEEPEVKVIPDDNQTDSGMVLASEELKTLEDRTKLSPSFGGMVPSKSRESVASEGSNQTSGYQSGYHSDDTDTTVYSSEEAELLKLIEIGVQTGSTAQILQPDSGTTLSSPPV

In general, IC50 refers to the concentration at which inhibition is half-maximal. High values mean weaker potency in that assay, low ones greater potency in that assay. Regarding `C=c1nns/c1=c1\[nH][nH]c(=O)c1=Cc1cn(C)c2ccc(C#N)cc12` [1-methyl-3-((3-(4-methyl-1,2,3-thiadiazol-5-yl)-5-oxo-1H-pyrazol-4(5H)-ylidene)methyl)-1H-indole-5-carbonitrile], the IC50 is above 0.3 µM.
Compound `C=c1nns/c1=c1\[nH][nH]c(=O)c1=Cc1c[nH]c2ccc(Cl)cc12` [4-((5-chloro-1H-indol-3-yl)methylene)-3-(4-methyl-1,2,3-thiadiazol-5-yl)-1H-pyrazol-5(4H)-one] had an IC50 above 0.3 µM.
